Reference: patent US9302999B2, “Substituted triazoles as herbicides” (E. I. DU PONT DE NEMOURS AND COMPANY, priority 2012, dated 2016)

Experiments:
Assay type in all cases: in vivo
corn (Zea mays) = assay: Test F pre-/postemergence: corn
Outline: (§1)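 Visual response scores, 0 meaning no effect and 100 complete control, were assigned against untreated controls 14 to 21 days after treatment. Test chemicals in a surfactant-containing non-phytotoxic solvent were applied preemergence to seeded silt loam soil or postemergence to 2–18 cm plants in peat-based medium.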

[1] = test system: velvetleaf (Abutilon theophrasti); assay: Test F pre-/postemergence: velvetleaf; conditions: Preemergence
From the text: (§2) Seeds of plant species selected from corn (Zea mays), soybean (Glycine max), velvetleaf (Abutilon theophrasti), lambsquarters (Chenopodium album), poinsettia, wild (wild poinsettia, Euphorbia heterophylla), pigweed, palmer (palmer pigweed, Amaranthus palmeri), waterhemp (common waterhemp, Amaranthus rudis), surinam grass (Brachiaria decumbens), crabgrass, Brazil (Brazilian crabgrass, Digitaria horizontalis), panicum, fall (fall panicum Panicum dichotomiflorum), crabgrass, large (large crabgrass, Digitaria sanguinalis), foxtail, giant (giant foxtail, Setaria faberii), foxtail, green (green foxtail Setaria viridis), goosegrass (Eleusine indica), ragweed (common ragweed, Ambrosia elatior), barnyardgrass (Echinochloa crus-galli), sandbur (southern sandbur, Cenchrus echinatus), arrowleaf sida (Sida rhombifolia), ryegrass, Italian (Italian ryegrass, Lolium multiflorum), dayflower, VA (Virginia (VA) dayflower, Commelina virginica), field bindweed (Convolvulus arvensis), cocklebur (common cocklebur, Xanthium strumarium), morningglory (Ipomoea coccinea), nightshade (eastern black nightshade, Solanum ptycanthum), kochia (Kochia scoparia), nutsedge, yellow (yellow nutsedge, Cyperus esculentus), johnsongrass (Sorghum halepense), smartweed (ladysthumb smartweed, Polygonum persicaria), and beggarticks (hairy beggarticks, Bidens pilosa), were planted into a silt loam soil and treated preemergence with test chemicals formulated in a non-phytotoxic solvent mixture which included a surfactant. At the same time, plants selected from these crop and weed species and also pigweed (Amaranthus retroflexus), waterhemp_RES1 (ALS/Triazine resistant common waterhemp, Amaranthus rudis) and waterhemp_RES2 (ALS/HPPD resistant common waterhemp, Amaranthus rudis) were planted in pots containing a planting medium comprising spaghnum peat moss, vermiculite, wetting agent and starter nutrients treated with postemergence applications of some of the test chemicals formulated in the same manner. Plants ranged in height from 2 to 18 cm for postemergence treatments (1- to 4-leaf stage).
(§3) Treated plants and controls were maintained in a greenhouse for 14 to 21 days, after which time all species were compared to controls and visually evaluated. Plant response ratings, summarized in Table E, are based on a scale of 0 to 100 where 0 is no effect and 100 is complete control. A dash (-) response means no test result.

[2] = test system: waterhemp (common waterhemp, Amaranthus rudis); assay: Test F pre-/postemergence: waterhemp
From the text: as §2, §3

[3] = test system: dayflower, VA (Virginia (VA) dayflower, Commelina virginica); assay: Test F pre-/postemergence: dayflower, VA
Outline: as §1

[4] = test system: nightshade (eastern black nightshade, Solanum ptycanthum); assay: Test F pre-/postemergence: nightshade; conditions: Preemergence
From the text: as §2, §3

[5] = Preemergence, 16 g ai/ha, scale 0 to 100, 0 no effect, 100 complete control
[6] = Preemergence, 31 g ai/ha, scale 0 to 100, 0 no effect, 100 complete control
[7] = Preemergence, 62 g ai/ha, scale 0 to 100
[8] = Preemergence, 125 g ai/ha, scale 0 to 100
[9] = Preemergence, 250 g ai/ha, scale 0 to 100
[10] = 16 g ai/ha, scale 0 to 100, 0 no effect, 100 complete control
[11] = 31 g ai/ha, scale 0 to 100, 0 no effect, 100 complete control
[12] = Postemergence, 250 g ai/ha, scale 0 to 100
[13] = Postemergence, 16 g ai/ha, scale 0 to 100
[14] = Postemergence, 31 g ai/ha, scale 0 to 100
[15] = Postemergence, 62 g ai/ha, scale 0 to 100
[16] = Postemergence, 125 g ai/ha, scale 0 to 100

Compound	Plant response rating, Corn (corn (Zea mays); [5])	Plant response rating, Corn (corn (Zea mays); [6])	Plant response rating, Corn (corn (Zea mays); [7])	Plant response rating, Corn (corn (Zea mays); [8])	Plant response rating, Corn (corn (Zea mays); [9])	Plant response rating, Velvetleaf [1, 10]	Plant response rating, Velvetleaf [1, 11]	Plant response rating, Velvetleaf ([1]; 125 g ai/ha, scale 0 to 100)	Plant response rating, Velvetleaf ([1]; 250 g ai/ha, scale 0 to 100)	Plant response rating, Waterhemp [2, 5]	Plant response rating, Waterhemp [2, 6]	Plant response rating, Waterhemp [2, 8]	Plant response rating, Waterhemp [2, 9]	Plant response rating, Dayflower, VA [3, 5]	Plant response rating, Dayflower, VA [3, 6]	Plant response rating, Dayflower, VA [3, 8]	Plant response rating, Dayflower, VA [3, 9]	Plant response rating, Nightshade [4, 11]	Plant response rating, Nightshade ([4]; 125 g ai/ha, scale 0 to 100)	Plant response rating, Nightshade ([4]; 250 g ai/ha, scale 0 to 100)	other results
COc1nn(-c2cccc(F)c2)nc1Cc1ccnc(C(F)(F)F)c1 [Compound 139]	0	0	0	0	5	0	0	0	65	70	100	100	100	0	5	60	65	35	100	100	Plant response rating, Dayflower, VA [3, 7]: 30; Plant response rating, Nightshade [4, 10]: 20
CCc1nn(-c2ccc(C(F)(F)F)cc2)nc1Oc1ccnc(C(F)(F)F)c1 [Compound 169]	0	0	0	0	0	0	0	60	100	60	80	100	100	0	5	65	75	80	100	100	Plant response rating, Corn (corn (Zea mays); [12]): 10; Plant response rating, Corn (corn (Zea mays); [13]): 5; Plant response rating, Corn (corn (Zea mays); [14]): 5; Plant response rating, Corn (corn (Zea mays); [15]): 10; Plant response rating, Corn (corn (Zea mays); [16]): 10; Plant response rating, Waterhemp [2, 12]: 100; Plant response rating, Waterhemp [2, 13]: 75; Plant response rating, Waterhemp [2, 14]: 90; Plant response rating, Waterhemp [2, 15]: 90; Plant response rating, Waterhemp [2, 16]: 100; Plant response rating, Dayflower, VA [3, 12]: 20; Plant response rating, Dayflower, VA [3, 13]: 10; Plant response rating, Dayflower, VA [3, 14]: 10; Plant response rating, Dayflower, VA [3, 15]: 10; Plant response rating, Dayflower, VA [3, 16]: 10; Plant response rating, Dayflower, VA [3, 7]: 10; Plant response rating, Nightshade [4, 10]: 0
CCc1nn(-c2ccc(F)cc2)nc1Cc1ccnc(C(F)(F)F)c1 [Compound 154]	0	0	0	5	5	0	20	40	100	50	60	100	100	0	0	70	90	10	90	100	Plant response rating, Dayflower, VA [3, 7]: 25; Plant response rating, Nightshade [4, 10]: 0
Cc1nn(-c2ccc(F)cc2F)nc1Oc1ccnc(C(F)(F)F)c1 [Compound 146]	0	0	0	0	0	0	0	0	25	25	75	100	100	0	0	35	35	10	65	100	Plant response rating, Dayflower, VA [3, 7]: 10; Plant response rating, Nightshade [4, 10]: 0
CCCc1nn(-c2ccc(F)c(F)c2)nc1Oc1ccnc(C(F)(F)F)c1 [Compound 172]		0		15	15		0	80	100		98	100	100		40	70	90	5	100	100	Plant response rating, Corn (corn (Zea mays); [12]): 30; Plant response rating, Corn (corn (Zea mays); [14]): 15; Plant response rating, Corn (corn (Zea mays); [16]): 20; Plant response rating, Waterhemp [2, 12]: 100; Plant response rating, Waterhemp [2, 14]: 95; Plant response rating, Waterhemp [2, 16]: 100; Plant response rating, Dayflower, VA [3, 12]: 50; Plant response rating, Dayflower, VA [3, 14]: 20; Plant response rating, Dayflower, VA [3, 16]: 30
